# Reference: US20100298141A1, “SUBSTITUTED PYRIDINE N-OXIDE HERBICIDES” (E. I. DU PONT DE NEMOURS AND COMPANY, priority 2007, published 2010)
# Legend:
# barnyardgrass [1] = assay: Test A pre-/postemergence greenhouse test; format: in vivo, Echinochloa crus-galli; conditions: for Barnyardgrass plant response rating: 0 to 100 scale; for Plant response rating, Barnyardgrass: 0 to 100 scale where 0 is no effect and 100 is complete control
# Method in brief: (§1)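 Greenhouse herbicide screen, pre- and postemergence in parallel. Soil: loam plus sand. Formulation: non-phytotoxic solvent mix with surfactant. Postemergence stage: one to two leaves, 2–10 cm height. Evaluation: visual injury, compared with untreated controls, about 10 days after treatment.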
# redroot pigweed = assay: Test A pre-/postemergence greenhouse test; format: in vivo, Amaranthus retroflexus; conditions: for Pigweed plant response rating: 0 to 100 scale; for Plant response rating, Pigweed: 0 to 100 scale where 0 is no effect and 100 is complete control
# Method in brief: as §1
# morningglory = assay: Test A pre-/postemergence greenhouse test; format: in vivo, Ipomoea spp.; conditions: for Morningglory plant response rating: 0 to 100 scale; for Plant response rating, Morningglory: 0 to 100 scale where 0 is no effect and 100 is complete control
# Method in brief: as §1
# wheat = assay: Test A pre-/postemergence greenhouse test; format: in vivo, Triticum aestivum; conditions: for Wheat plant response rating: 0 to 100 scale; for Plant response rating, Wheat: 0 to 100 scale where 0 is no effect and 100 is complete control
# Method in brief: as §1
# barnyardgrass [2] = assay: Test C flooded paddy test; format: in vivo, Echinochloa crus-galli; conditions: Flood
# Method in brief: (§2)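 Visual injury ratings against untreated controls, taken 13 to 15 days after compound was added to paddy water standing 3 cm above the soil.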
# umbrella sedge = assay: Test C flooded paddy test; format: in vivo, Cyperus difformis; conditions: Flood
# Method in brief: as §2
# duck salad = assay: Test C flooded paddy test; format: in vivo, Heteranthera limosa; conditions: Flood
# Method in brief: as §2
# rice = assay: Test C flooded paddy test; format: in vivo, Oryza sativa; conditions: Flood
# Method in brief: as §2
# corn = assay: Test A pre-/postemergence greenhouse test; format: in vivo, Zea mays; conditions: for Corn plant response rating: 0 to 100 scale; for Plant response rating, Corn: 0 to 100 scale where 0 is no effect and 100 is complete control
# Method in brief: as §1
# crabgrass = assay: Test A pre-/postemergence greenhouse test; format: in vivo, Digitaria sanguinalis; conditions: for Crabgrass, Large plant response rating: 0 to 100 scale; for Plant response rating, Crabgrass, Large: 0 to 100 scale where 0 is no effect and 100 is complete control
# Method in brief: as §1
# velvetleaf = assay: Test A pre-/postemergence greenhouse test; format: in vivo, Abutilon theophrasti; conditions: for Velvetleaf plant response rating: 0 to 100 scale; for Plant response rating, Velvetleaf: 0 to 100 scale where 0 is no effect and 100 is complete control
# Method in brief: as §1
# giant foxtail = assay: Test A pre-/postemergence greenhouse test; format: in vivo, Setaria faberi; conditions: for Foxtail, Giant plant response rating: 0 to 100 scale; for Plant response rating, Foxtail, Giant: 0 to 100 scale where 0 is no effect and 100 is complete control
# Method in brief: as §1
# [3] = Postemergence, 125 g ai/ha, 0 is no effect, 100 is complete control
# [4] = Postemergence, 500 g ai/ha, 0 is no effect, 100 is complete control
# [5] = Preemergence, 125 g ai/ha, 0 no effect, 100 complete control
# [6] = 31 g ai/ha, scale 0 to 100 (0 no effect, 100 complete control)
# [7] = 62 g ai/ha, scale 0 to 100, 0 no effect, 100 complete control, 13 to 15 days
# [8] = 125 g ai/ha, scale 0 to 100, 0 no effect, 100 complete control, 13 to 15 days
# [9] = 250 g ai/ha, scale 0 to 100, 0 no effect, 100 complete control, 13 to 15 days
smiles,measurement,setting,value
Cn1nc(C(F)(F)F)c(CS(=O)(=O)c2cc(Cl)cc[n+]2[O-])c1Cl [Compound 38],Barnyardgrass plant response rating,barnyardgrass [1]; [3],0
same,Barnyardgrass plant response rating,barnyardgrass [1]; [4],0
same,Barnyardgrass plant response rating,barnyardgrass [1]; [5],30
same,"Plant response rating, Barnyardgrass","barnyardgrass [1]; Preemergence, 500 g ai/ha",60
same,Pigweed plant response rating,redroot pigweed; [3],0
same,Pigweed plant response rating,redroot pigweed; [4],0
same,Pigweed plant response rating,redroot pigweed; [5],0
same,"Plant response rating, Pigweed","redroot pigweed; Preemergence, 500 g ai/ha",0
same,Morningglory plant response rating,morningglory; [3],0
same,Morningglory plant response rating,morningglory; [4],0
same,Morningglory plant response rating,morningglory; [5],0
same,"Plant response rating, Morningglory","morningglory; Preemergence, 500 g ai/ha",0
same,Wheat plant response rating,wheat; [3],0
same,Wheat plant response rating,wheat; [4],0
same,Wheat plant response rating,wheat; [5],0
same,"Plant response rating, Wheat","wheat; Preemergence, 500 g ai/ha",0
same,"Plant response rating, Barnyardgrass",barnyardgrass [2]; [6],0
same,"Plant response rating, Barnyardgrass",barnyardgrass [2]; [7],0
same,"Plant response rating, Barnyardgrass",barnyardgrass [2]; [8],0
same,"Plant response rating, Barnyardgrass",barnyardgrass [2]; [9],0
same,"Plant response rating, Sedge, Umbrella",umbrella sedge; [6],0
same,"Plant response rating, Sedge, Umbrella",umbrella sedge; [7],0
same,"Plant response rating, Sedge, Umbrella",umbrella sedge; [8],0
same,"Plant response rating, Sedge, Umbrella",umbrella sedge; [9],0
same,"Plant response rating, Ducksalad",duck salad; [6],0
same,"Plant response rating, Ducksalad",duck salad; [7],0
same,"Plant response rating, Ducksalad",duck salad; [8],0
same,"Plant response rating, Ducksalad",duck salad; [9],0
same,"Plant response rating, Rice",rice; [6],0
same,"Plant response rating, Rice",rice; [7],0
same,"Plant response rating, Rice",rice; [8],0
same,"Plant response rating, Rice",rice; [9],0
same,Corn plant response rating,corn; [3],0
same,Corn plant response rating,corn; [4],0
same,Corn plant response rating,corn; [5],0
same,"Plant response rating, Corn","corn; Preemergence, 500 g ai/ha",0
same,"Crabgrass, Large plant response rating",crabgrass; [3],0
same,"Crabgrass, Large plant response rating",crabgrass; [4],0
same,"Crabgrass, Large plant response rating",crabgrass; [5],0
same,"Plant response rating, Crabgrass, Large","crabgrass; Preemergence, 500 g ai/ha",0
same,Velvetleaf plant response rating,velvetleaf; [3],0
same,Velvetleaf plant response rating,velvetleaf; [4],0
same,Velvetleaf plant response rating,velvetleaf; [5],0
same,"Plant response rating, Velvetleaf","velvetleaf; Preemergence, 500 g ai/ha",0
same,"Foxtail, Giant plant response rating",giant foxtail; [3],0
same,"Foxtail, Giant plant response rating",giant foxtail; [4],0
same,"Foxtail, Giant plant response rating",giant foxtail; [5],0
same,"Plant response rating, Foxtail, Giant","giant foxtail; Preemergence, 500 g ai/ha",30
Cc1cc[n+]([O-])c(S(=O)(=O)Cc2c(C(F)(F)F)nn(CC(F)(F)F)c2Cl)c1 [Compound 49],"Plant response rating, Barnyardgrass","barnyardgrass [1]; Postemergence, 125 g ai/ha",40
same,Barnyardgrass plant response rating,barnyardgrass [1]; [4],70
same,Barnyardgrass plant response rating,barnyardgrass [1]; [5],70
same,"Plant response rating, Barnyardgrass","barnyardgrass [1]; Preemergence, 500 g ai/ha",90
same,"Plant response rating, Pigweed","redroot pigweed; Postemergence, 125 g ai/ha",0
same,Pigweed plant response rating,redroot pigweed; [4],10
same,Pigweed plant response rating,redroot pigweed; [5],80
same,"Plant response rating, Pigweed","redroot pigweed; Preemergence, 500 g ai/ha",100
same,"Plant response rating, Morningglory","morningglory; Postemergence, 125 g ai/ha",0
same,Morningglory plant response rating,morningglory; [4],0
same,Morningglory plant response rating,morningglory; [5],30
same,"Plant response rating, Morningglory","morningglory; Preemergence, 500 g ai/ha",30
same,"Plant response rating, Wheat","wheat; Postemergence, 125 g ai/ha",0
same,Wheat plant response rating,wheat; [4],0
same,Wheat plant response rating,wheat; [5],0
same,"Plant response rating, Wheat","wheat; Preemergence, 500 g ai/ha",30
same,"Plant response rating, Barnyardgrass",barnyardgrass [2]; [7],0
same,"Plant response rating, Barnyardgrass",barnyardgrass [2]; [9],0
same,"Plant response rating, Sedge, Umbrella",umbrella sedge; [9],10
same,"Plant response rating, Ducksalad",duck salad; [7],0
same,"Plant response rating, Ducksalad",duck salad; [9],0
same,"Plant response rating, Rice",rice; [7],0
same,"Plant response rating, Rice",rice; [9],0
same,"Plant response rating, Corn","corn; Postemergence, 125 g ai/ha",0
same,Corn plant response rating,corn; [4],0
same,Corn plant response rating,corn; [5],0
same,"Plant response rating, Corn","corn; Preemergence, 500 g ai/ha",0
same,"Plant response rating, Crabgrass, Large","crabgrass; Postemergence, 125 g ai/ha",30
same,"Crabgrass, Large plant response rating",crabgrass; [4],70
same,"Crabgrass, Large plant response rating",crabgrass; [5],70
same,"Plant response rating, Crabgrass, Large","crabgrass; Preemergence, 500 g ai/ha",90
same,"Plant response rating, Velvetleaf","velvetleaf; Postemergence, 125 g ai/ha",20
same,Velvetleaf plant response rating,velvetleaf; [4],30
same,Velvetleaf plant response rating,velvetleaf; [5],0
same,"Plant response rating, Velvetleaf","velvetleaf; Preemergence, 500 g ai/ha",40
same,"Plant response rating, Foxtail, Giant","giant foxtail; Postemergence, 125 g ai/ha",40
same,"Foxtail, Giant plant response rating",giant foxtail; [4],70
same,"Foxtail, Giant plant response rating",giant foxtail; [5],80
same,"Plant response rating, Foxtail, Giant","giant foxtail; Preemergence, 500 g ai/ha",90
